{"source": "paper PMC10465960", "about": "(Acta Pharmaceutica Sinica. B, 2023)", "target": "Trx-A-NMt-PCP (module 2 of the Sas17 NRPS protein) (Streptomyces calvus, UniProt A0A514JVM2)", "sequence (A0A514JVM2 1553-2567)": "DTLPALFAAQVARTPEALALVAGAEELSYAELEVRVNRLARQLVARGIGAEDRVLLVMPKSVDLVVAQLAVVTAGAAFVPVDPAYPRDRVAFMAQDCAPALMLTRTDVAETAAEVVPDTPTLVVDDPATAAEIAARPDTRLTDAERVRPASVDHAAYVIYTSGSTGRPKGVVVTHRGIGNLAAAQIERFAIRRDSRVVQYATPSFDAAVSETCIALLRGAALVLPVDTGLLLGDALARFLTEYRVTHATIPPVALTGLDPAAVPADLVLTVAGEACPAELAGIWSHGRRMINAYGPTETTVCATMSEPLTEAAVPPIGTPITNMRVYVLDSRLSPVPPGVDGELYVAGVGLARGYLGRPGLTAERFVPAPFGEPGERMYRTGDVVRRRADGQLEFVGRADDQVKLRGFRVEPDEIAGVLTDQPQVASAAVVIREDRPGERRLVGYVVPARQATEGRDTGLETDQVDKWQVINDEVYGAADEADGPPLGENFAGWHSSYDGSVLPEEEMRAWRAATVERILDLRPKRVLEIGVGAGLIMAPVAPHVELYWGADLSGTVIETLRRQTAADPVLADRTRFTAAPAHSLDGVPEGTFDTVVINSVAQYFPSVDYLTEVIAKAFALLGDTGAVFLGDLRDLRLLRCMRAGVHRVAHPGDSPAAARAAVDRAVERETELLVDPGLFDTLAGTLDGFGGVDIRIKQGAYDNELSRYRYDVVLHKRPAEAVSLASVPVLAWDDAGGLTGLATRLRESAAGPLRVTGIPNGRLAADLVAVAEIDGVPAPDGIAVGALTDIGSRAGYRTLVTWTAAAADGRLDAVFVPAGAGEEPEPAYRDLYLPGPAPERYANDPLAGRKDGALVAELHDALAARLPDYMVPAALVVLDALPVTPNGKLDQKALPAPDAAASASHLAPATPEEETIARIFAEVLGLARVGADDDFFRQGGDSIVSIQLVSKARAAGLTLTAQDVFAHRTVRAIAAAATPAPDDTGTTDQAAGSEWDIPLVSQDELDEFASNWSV", "settings": "NMt domain; methyl donor for PCP-bound Tyr; 5 mM SAM, 1 h"}
{"smiles": "C[S+](CC[C@H](N)C(=O)O)C[C@H]1O[C@@H](n2cnc3c(N)ncnc32)[C@H](O)[C@@H]1O", "note": "(stereo partly shown) [SAM]", "values": [{"measurement": "LC-MS of methylamine-cleaved PCP thioester", "value": "Reconstitution of the Mt domain using SAM then led to the methylation of the PCP-bound"}]}
